Source: ChEMBL document CHEMBL1159308, “A new triterpene saponin from Pittosporum viridiflorum from the Madagascar rainforest” (J Nat Prod, 2002)
Values after ≈ are worked out from the molar mass of the structure shown.

Experiments:
[1] = test system: Saccharomyces cerevisiae; experiment: DNA damaging activity against yeast 1138 mutant assessed as drug level required to produce 12 mm zone of inhibition; type: functional
[2] = test system: Saccharomyces cerevisiae; experiment: DNA damaging activity against yeast 1140 mutant assessed as drug level required to produce 12 mm zone of inhibition; type: functional
[3] = test system: Saccharomyces cerevisiae; experiment: DNA damaging activity against yeast 1353 mutant assessed as drug level required to produce 12 mm zone of inhibition; type: functional
[4] = test system: Saccharomyces cerevisiae; experiment: DNA damaging activity against yeast Sc7 mutant assessed as drug level required to produce 12 mm zone of inhibition; type: functional
[5] = test system: A2780; experiment: Cytotoxicity against human A2780 cells; type: functional, cell-based

Which IC12 [1] does the source give for `C/C=C(/C)C(=O)O[C@H]1[C@H](OC(=O)C=C(C)C)[C@@]2(CO)[C@H](CC1(C)C)C1=CC[C@@H]3[C@@]4(C)CC[C@H](O[C@@H]5O[C@H](C(=O)O)[C@@H](O[C@H]6O[C@H](CO)[C@@H](O)[C@@H]6O)[C@H](O[C@H]6OC[C@@H](O)[C@@H](O)[C@@H]6O)[C@H]5O[C@@H]5O[C@H](CO)[C@@H](O)[C@H](O)[C@H]5O)C(C)(C)[C@@H]4CC[C@@]3(C)[C@]1(C)[C@@H](O)[C@H]2O` [PITTOVIRIDOSIDE] here?
Its IC12 is 85 µg/mL.

And the IC12 [2]?
Its IC12 is 80 µg/mL.

What about the IC12 [3] of the same compound?
The IC12 was 140 µg/mL.

And the IC12 [4]?
The IC12 was 100 µg/mL.

What about the IC50 [5] of the same compound?
The IC50 was 10.1 µg/mL (≈ 7.93 µM).
